Results on six molecules are retold here after US9006285B2, “Therapeutic agent for hepatitis C” (Mochida Pharmaceutical Co., Ltd., priority 2008, dated 2015).

In data set [1] the test system is HCV replication in OR6 cells. The note with it: cited from earlier work.
The test system of data set [2] is HCV replication in Ava5 cells. The following applies: cited from earlier work.
Data set [3] relates to hepatitis C virus (HCV). The data set can be described thus: EPA-E before and during interferon therapy in hepatitis C with or without hepatic steatosis (Example 2-2). It counts as in vivo, human. The note with it: 1800 to 2700 mg/day oral at least one month before and during interferon therapy.
Procedure: The patients to be tested are divided into two groups, EPA-E administered group and EPA-E non-administered group. In addition, a fatty liver group and a non-fatty liver group are set up in each of the EPA-E administered group and the EPA-E non-administered group by investigating the degree of hepatic fatty change through diagnostic imaging or hepatobiopsy. To the EPA-E administered group, 1800 to 2700 mg/day of EPA-E is orally administered for at least one month before interferon therapy. To the EPA-E non-administered group, none of EPA and derivatives thereof is administered during the testing period. Subsequently, interferon therapy is conducted on each group for three months or longer. The dose, dosage interval, dosage period, and the like of interferon are specified as appropriate to the condition of a patient, side effects of the interferon, and so forth. After the termination of interferon administration, the alanine aminotransferase (ALT) activity and the HCV-RNA level are measured (the latter by a COBAS AMPLICOR MONITOR assay), and a hepatohistological test is conducted. It should be noted that EPA-E is also administered to the EPA-E group during the administration of interferon.
The conditions of data set [4]: in vivo; cited from earlier work.
The subject of data set [5] is hepatitis C virus (HCV). The note with it: hepatitis C patients; cited from earlier work.
The test system of data set [6] is hepatitis C virus (HCV). In words: Response rate to repeated interferon therapy after EPA-E in non-responders or relapsers (Example 2-1). The format is in vivo, human. The note with it: 1800 to 2700 mg/day oral for three months before repeated interferon therapy; six months after completion of interferon therapy. The method, then:
Employing those hepatitis C patients as targets who were determined as non-responders or relapsers after interferon therapy, it is confirmed that the response rate to the interferon therapy is improved in re-treatment cases by the administration of EPA-E.
The patients to be tested are divided into two groups, namely, EPA-E administered group and EPA-E non-administered group. To the EPA-E administered group, 1800 to 2700 mg/day of EPA-E is orally administered for three months after the patients were determined as non-responders or relapsers with respect to the interferon therapy. To the EPA-E non-administered group, none of EPA and derivatives thereof is administered during the testing period. Subsequently, the interferon therapy is conducted again on both groups. The dose, dosage interval, dosage period, and the like of interferon are specified as appropriate to the condition of a patient, side effects of the interferon, and so forth. The ratio at which the patients became negative for the HCV-RNA level is calculated six months after the completion of interferon therapy.
It is confirmed that the ratio as calculated is higher in the EPA-E administered group than the EPA-E non-administered group.

Data set [7] relates to blood HCV-RNA level (hepatitis C virus). In words: Time to negativity for the blood HCV-RNA level on repeated interferon therapy after EPA-E (Example 2-3). It counts as in vivo, human. The note with it: 1800 to 2700 mg/day oral at least two weeks before repeated interferon therapy. The method, then:
Employing those hepatitis C patients as targets who were determined as non-responders or relapsers after interferon therapy, it is confirmed that the time at which the patients become negative for the blood HCV-RNA level is allowed to be earlier by the administration of EPA-E.
The patients to be tested are divided into two groups, EPA-E administered group and EPA-E non-administered group. To the EPA-E administered group, 1800 to 2700 mg/day of EPA-E is orally administered for at least two weeks after the patients were determined as non-responders or relapsers with respect to the interferon therapy. To the EPA-E non-administered group, none of EPA and derivatives thereof is administered during the testing period. Subsequently, the interferon therapy is conducted again on both groups. The dose, dosage interval, dosage period, and the like of interferon are specified as appropriate to the condition of a patient, side effects of the interferon, and so forth. The blood HCV-RNA level is measured in course of the administration of interferon. Data on the time after the start of interferon administration at which the patients became negative for the blood HCV-RNA level are collected to comparison between the two groups.
For instance, the ratio of the patients becoming negative for the blood HCV-RNA level within 12 weeks after the start of interferon administration is increased.

The conditions of data set [8]: healthy male adult, cited from earlier work.
Data set [9] concerns blood HCV-RNA level (hepatitis C virus). In words: Interferon therapy (interferon and ribavirin) with or without EPA-E in hepatitis C patients, by blood triglyceride level (Example 3). It counts as in vivo, human. The following applies: hepatitis C complicated with hypertriglyceridemia; interferon therapy along with oral 1800 to 2700 mg/day EPA-E. From the text:
The determination of the response rate to interferon therapy needs a follow-up survey for six months or longer after the completion of the therapy, that is to say, is time-consuming. The response rate can be determined earlier by using a leading index as a surrogate. For instance, the response rate to interferon therapy is expected to be increased if the reduction in viral load (reduction in blood HCV-RNA level) is significant three days after the start of the therapy. Accordingly, the reduction in viral load three days after the start of interferon therapy can be used as a leading index for the determination of the response rate to the interferon therapy. The reduction in viral load is preferably not less than 2.0 as the difference between the common logarithm value of the blood HCV-RNA level before the start of interferon therapy and the common logarithm value of the blood HCV-RNA level three days after the start of interferon therapy.
On the patients having hepatitis C complicated with hypertriglyceridemia, the interferon therapy was then conducted along with the oral administration of 1800 to 2700 mg/day of EPA-E.
As a result, the reduction in viral load was 2.375 on average, that is to say, EPA-E improved the effectiveness of the interferon therapy in the patients having hepatitis C complicated with hypertriglyceridemia. […]

Data set [10] relates to hepatitis C virus (HCV). In words: EPA-E in interferon non-responders having hepatitis C complicated with hepatic steatosis (Example 1). The format is in vivo, human. The following applies: 2700 mg/day oral, third and sixth month, no interferon. The method, then:
To the patients from whom interferon was withdrawn for about one month after they were determined to be unresponsive to interferon therapy, 2700 mg/day of EPA-E is orally administered for three months or longer. During the testing period, it is forbidden to administer any new drug considered to effect change in hepatic function. Also forbidden is administration of interferon. If the alanine aminotransferase (ALT) activity and/or the HCV-RNA level is quantified (the latter by a COBAS AMPLICOR MONITOR assay) before EPA-E administration, as well as on the third month and the sixth month of EPA-E administration, and the values as obtained are compared with those before administration, it is confirmed that the ALT activity and/or the HCV-RNA level is reduced by not less than 10%.
Instead of the ALT activity, improvement in liver tissue finding, reduction in lipid droplet, or reduction in proportion of 18:1 fatty acids (oleic acid in particular) among liver triglyceride fractions may be confirmed.

[11] abbreviates: in one week of continuous oral administration.

Turning to `CCCCC/C=C\C/C=C\CCCCCCCC(=O)O` [linoleic acid], the “HCV replication-inhibiting effect independent of cytotoxicity” value in [1] is “only linoleic acid had the HCV replication-inhibiting effect”.

On to `CC/C=C\C/C=C\C/C=C\C/C=C\C/C=C\C/C=C\CCC(=O)O` [DHA, docosahexaenoic acid], for which the “HCV replication-inhibiting effect independent of cytotoxicity” value in data set [1] is reported as “only linoleic acid had the HCV replication-inhibiting effect”.

For the molecule `CC/C=C\C/C=C\C/C=C\C/C=C\C/C=C\CCCC(=O)O` [EPA, icosapentaenoic acid], in data set [2], the HCV replication entry is listed as “inhibited HCV replication”. The “effect of interferon and EPA in combination versus interferon alone on hepatitis C complicated with hepatic steatosis” value in [3] is “greater effect”. Moreover, in [1], the “HCV replication-inhibiting effect independent of cytotoxicity” value is listed as “only linoleic acid had the HCV replication-inhibiting effect”. Further, in data set [4], the “anaemia during combination therapy with interferon and ribavirin” value is on record as “can prevent anaemia”.

With `CCCCC/C=C\C/C=C\C/C=C\C/C=C\CCCC(=O)O` [arachidonic acid], in [2], the HCV replication result is “inhibited HCV replication”. Further, in data set [1], the “HCV replication-inhibiting effect independent of cytotoxicity” value is on record as “only linoleic acid had the HCV replication-inhibiting effect”.

For the molecule IFN-α, in data set [5], the HCV elimination rate result is given as “about 30%”.

On to `CC/C=C\C/C=C\C/C=C\C/C=C\C/C=C\CCCC(=O)OCC` [EPA-E, ethyl icosapentate], for which the “ratio at which patients became negative for the HCV-RNA level, versus EPA-E non-administered group” value in data set [6] is listed as “higher”. In data set [7], the “ratio of patients becoming negative for the blood HCV-RNA level within 12 weeks after start of interferon administration” value is recorded as “increased” and the “time at which patients become negative for the blood HCV-RNA level, versus EPA-E non-administered group” value was “shows a tendency to be earlier”. Also, the “time at which the plasma EPA level reaches a plateau” value in [8] (continuous oral administration) is reported as “one week”. Further, in data set [8] (setting [11]), the “plasma EPA/AA (arachidonic acid) ratio” value is “higher than 1.0” and the “plasma EPA/AA relative to that before administration” value is listed as “about two times”. Besides, the “effect on hepatitis C complicated with hepatic steatosis versus not complicated with hepatic steatosis” value in data set [3] (ALT, HCV-RNA, hepatohistological test) is recorded as “greater”. In data set [9], the “reduction in viral load (difference between common logarithm values of the blood HCV-RNA level), on average” value is reported as 2.375. The “reduction of HCV-RNA level compared with before administration” value in [10] (COBAS AMPLICOR MONITOR assay) is reported as “not less than 10%”. For the same molecule, the “reduction of ALT activity compared with before administration” value in data set [10] is listed as “not less than 10%”.
